In patent US20250375450A1, “SMARCA2/4 INHIBITION AS A STRATEGY TO TREAT TUMORS THAT HARBOR ABERRANT BAF ASSEMBLIES” (BOARD OF REGENTS, THE UNIVERSITY OF TEXAS SYSTEM, priority 2022, published 2025):
“Also recorded” adds a separate entry of the source.

Tests used:
[1] = tested on: DAOY; assay: Cell proliferation assay and IC50 measurement (PrestoBlue); type: cell-based; conditions: Homo sapiens, PrestoBlue cell viability
Experimental: (§1) FIG. 10A-C show representative data illustrating that AT-301 kills Ewing's, RMS, GBM, AML, and other cancer cells. Cell lines were treated with serial dilutions (2×) of AT-301, and IC50 values of each cell line were determined using PrestoBlue dye for cell viability following manufacturer's protocol (Invitrogen, A13261). See also Table 3.
(§2) DAOY, D556 cells: EMEM, 10% FBS, Penicillin (100 units/mL) and streptomycin (100 μg/mL) in the presence of 5% CO2.
(§3) Proliferation of adherent cells was determined on the IncuCyte live-cell imaging system (Essen BioScience). Cells were seeded on clear bottom 96 well plates at a seeding density of 2000 cells/well. Cells were allowed to attach overnight after which the medium was replaced with fresh medium containing serial dilutions (2×) of the compound or DMSO control. Percent confluence was calculated by the IncuCyte software from four different images per well from at least three replicate wells. For non-adherent cells, the 96-well plates were coated with poly-L-lysine before seeding to facilitate cell adhesion. At the end of the assay, dose-dependent cell viability was determined by staining the cells with PrestoBlue (Invitrogen, A13261) as per manufacturer's instructions and IC50 was calculated (FIG. 10).

[2] = tested on: D556; assay: as above; type: cell-based; conditions: PrestoBlue cell viability
Experimental: as §1, §2, §3

[3] = tested on: H2030; assay: as above; type: cell-based; conditions: Homo sapiens, NCI-H2030, PrestoBlue cell viability
Experimental: as §1
(§4) Jurkat, Molt-4, RH4, RH30, BT40, GBM2, ES3, ES6, ES7, HC827, H1975, H2030 cells: RPMI 1640, 10% FBS, Penicillin (100 units/mL) and streptomycin (100 μg/mL) in the presence of 5% CO2.
as §3

[4] = tested on: ES6; assay: as above; type: cell-based; conditions: PrestoBlue cell viability
Experimental: as §1, §4, §3

[5] = tested on: GBM2; assay: as above; type: cell-based; conditions: PrestoBlue cell viability
Experimental: as §1, §4, §3

[6] = tested on: H1975; assay: as above; type: cell-based; conditions: Homo sapiens, NCI-H1975, PrestoBlue cell viability
Experimental: as §1, §4, §3

[7] = tested on: ES3; assay: as above; type: cell-based; conditions: PrestoBlue cell viability
Experimental: as §1, §4, §3

[8] = tested on: Molt4; assay: as above; type: cell-based; conditions: Homo sapiens, MOLT-4, PrestoBlue cell viability
Experimental: as §1, §4, §3

[9] = tested on: HCC827; assay: as above; type: cell-based; conditions: Homo sapiens, PrestoBlue cell viability
Experimental: as §1, §4, §3

[10] = tested on: RH30; assay: as above; type: cell-based; conditions: PrestoBlue cell viability
Experimental: as §1, §4, §3

[11] = tested on: RH4; assay: as above; type: cell-based; conditions: PrestoBlue cell viability
Experimental: as §1, §4, §3

[12] = tested on: Jurkat; assay: as above; type: cell-based; conditions: Homo sapiens, PrestoBlue cell viability
Experimental: as §1, §4, §3

[13] = tested on: ES7; assay: as above; type: cell-based; conditions: Homo sapiens, PrestoBlue cell viability
Experimental: as §1, §4, §3

[14] = tested on: BT40; assay: as above; type: cell-based; conditions: PrestoBlue cell viability
Experimental: as §1, §4, §3

[15] = tested on: RH41 (rhabdomyosarcoma) cells; assay: Apoptosis, IncuCyte Caspase-3/7 green reagent; type: cell-based
Experimental: (§5) Referring to FIG. 11A and FIG. 11B, RH4 (FIG. 11A) and ES3 (FIG. 11B) cells were treated with the indicated concentrations of BAF-X-1 or DMSO in triplicate and apoptosis was detected using the IncuCyte Caspase 3/7 green dye (Sartorius). Brightfield and green fluorescence images were captured every 2 hours from 4 fields per well on the IncuCyte live cell imager. The proportion of caspase positive (green) cells relative to % confluence of the well was calculated on the IncuCyte software and plotted against time. Referring to FIG. 11C and FIG. 11D, RH41 cells were treated with 7.5 μM AT-301 (FIG. 11D) or DMSO (FIG. 11C) for 24 hours, harvested with accutase, washed, and fixed in 70% ethanol. They were subsequently stained with propidium iodide/RNase and fluorescence was analyzed on BD flow cytometer. Resulting data was analyzed using FlowJo software.
(§6) The medium was then replaced with fresh medium containing dilutions of the compound (AT-301) or DMSO (as a negative control), and 1× IncuCyte Caspase-3/7 green reagent (Sartorius) and proliferation/apoptosis was measured on IncuCyte live-cell imaging system. The treated cells were imaged every (2/4) hours and four fields from each well were imaged for analysis.

[16] = tested on: ES3 (Ewing's sarcoma) cells; assay: Apoptosis, IncuCyte Caspase-3/7 green reagent; type: cell-based
Experimental: as §5, §6

[17] = tested on: Ewing's sarcoma (EW13); assay: Patient-derived xenograft (PDX) mouse model, single mouse testing (SMT); type: in vivo; conditions: 50 mg/kg orally three times a week for four weeks
Experimental: To assess the antitumor activity of AT-301 in a mouse model, a single mouse testing (SMT) experiment was used. SMT has 95% concordance with conventional testing and allows far greater inclusion of genetic/epigenetic heterogeneity. A patient-derived xenograft (PDX) mouse model (C.B.17 scid females (Envigo, IN)) of Ewing's sarcoma (EW13) was used in the SMT experiment. 50 mg/kg of AT-301 (formulated in 30% captisol) or just vehicle (30% captisol) was administered orally three times a week for four weeks.

[18] = tested on: endometrial cancer cells; assay: Growth/killing of endometrial cancer cells; type: cell-based; conditions: dose-dependent
Experimental: as §3
Referring to FIG. 10A, AT-301 kills a variety of cancer cells (brain tumors, rhabdomyosarcoma, nonsmall cell lung cancer, leukemia, and Ewing's Sarcoma. We also tested whether AT-301 can kill cells representing gynecological cancers (ovarian and endometrial cancer). As shown in FIG. 10B-C, AT-301 kills a variety of ovarian and endometrial cancer cells.

Clc1ccc(CNc2nc(NC3CCCC3)nc3ccccc23)cc1Cl [AT-301, N^2-cyclopentyl-N^4-(3,4-dichlorobenzyl)quinazoline-2,4-diamine]
IC50 [1]: 4.19 µM
IC50 [2]: 3.02 µM
IC50 [3]: 6.26 µM
IC50 [4]: 2.84 µM
IC50 [5]: 3.54 µM
IC50 [6]: 5.31 µM
IC50 [7]: 5.21 µM
IC50 [8]: 4.39 µM
IC50 [9]: 5.21 µM
IC50 [10]: 2.96 µM
IC50 [11]: 6.54 µM
IC50 [12]: 2.81 µM
IC50 [13]: 4.83 µM
IC50 [14]: 3.49 µM
Apoptosis (caspase 3/7) [15]: induces apoptosis
Apoptosis (caspase 3/7) [16]: induces apoptosis
Tumor growth ([17]; 30% captisol, EW13 PDX in C.B.17 scid females): completely suppressed the tumor growth
Body weight ([17]; EW13 PDX mouse): without any apparent loss in body weight
Growth/killing of endometrial cancer cells [18]: kills; also recorded: inhibits the growth
